Assay results reported in PubChem BioAssay AID328 (DTP/NCI, 2004).
Where “and” joins values, the source holds several entries; their conditions need not be identical. Identical values can stand only once. Toxic doses and inconclusive results are not listed.

System: BDF1 mice, P388 leukemia ip, median survival T/C
Assay: NCI In Vivo Anticancer Drug Screen. Data for tumor model P388 Leukemia (intraperitoneal) in B6D2F1 (BDF1) mice
Settings: endpoint: median survival time, higher = longer survival
Method in brief: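 Transplantable tumour in mice; compound vs vehicle dosing; survival scored; ratio of treated to control reported.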

[1] = dose: 50.0 mg/kg/injection, schedule: Q01DX009 (ip), vehicle: saline with Tween-80
[2] = dose: 100.0 mg/kg/injection, schedule: Q01DX009 (ip), vehicle: saline with Tween-80
[3] = dose: 200.0 mg/kg/injection, schedule: Q01DX009 (ip), vehicle: saline with Tween-80

With `CCOC(=O)c1c(N)ssc1=S` the T/C (dose: 6.25 mg/kg/injection, schedule: Q01DX009 (ip), vehicle: saline) was 101 % of control, the T/C (dose: 12.5 mg/kg/injection, schedule: Q01DX009 (ip), vehicle: saline) was 113 % of control and the T/C (dose: 25.0 mg/kg/injection, schedule: Q01DX009 (ip), vehicle: saline) was 100 % of control. The T/C (dose: 50.0 mg/kg/injection, schedule: Q01DX009 (ip), vehicle: saline) was 111 % of control, the T/C (dose: 100.0 mg/kg/injection, schedule: Q01DX009 (ip), vehicle: saline) was 113 % of control and the T/C (dose: 100.0 mg/kg/injection, schedule: Q04DX003 (ip), vehicle: saline) was 112 % of control. The T/C (dose: 200.0 mg/kg/injection, schedule: Q01DX009 (ip), vehicle: saline) was 93 % of control and 104 % of control, the T/C (dose: 200.0 mg/kg/injection, schedule: Q04DX003 (ip), vehicle: saline) was 86 % of control and the T/C (dose: 300.0 mg/kg/injection, schedule: Q01DX009 (ip), vehicle: saline) was 91 % of control.

With `CC(=O)OC1(C)CC(C)C(=O)C(C(O)CC2CC(=O)NC(=O)C2)C1` (stereo not drawn) the T/C (dose: 0.25 mg/kg/injection, schedule: Q01DX010 (ip), vehicle: water) was 90 % of control, the T/C (dose: 2.16 mg/kg/injection, schedule: Q01DX001 (sc), vehicle: saline) was 100 % of control and the T/C (dose: 3.24 mg/kg/injection, schedule: Q01DX001 (ip), vehicle: saline) was 110 % of control. For the same compound, the T/C (dose: 3.6 mg/kg/injection, schedule: Q01DX001 (sc), vehicle: saline) was 123 % of control, the T/C (dose: 5.4 mg/kg/injection, schedule: Q01DX001 (ip), vehicle: saline) was 116 % of control and the T/C (dose: 5.4 mg/kg/injection, schedule: Q04DX003 (ip), vehicle: saline) was 107 % of control. The T/C (dose: 6.0 mg/kg/injection, schedule: Q01DX001 (sc), vehicle: saline) was 118 % of control, the T/C (dose: 9.0 mg/kg/injection, schedule: Q01DX001 (ip), vehicle: saline) was 117 % of control and the T/C (dose: 15.0 mg/kg/injection, schedule: Q01DX001 (ip), vehicle: saline) was 123 % of control. The T/C (dose: 778.0 micrograms/kg/injection, schedule: Q04DX003 (sc), vehicle: saline) was 109 % of control, the T/C (dose: 1300.0 micrograms/kg/injection, schedule: Q04DX003 (sc), vehicle: saline) was 116 % of control and the T/C (dose: 2160.0 micrograms/kg/injection, schedule: Q04DX003 (sc), vehicle: saline) was 107 % of control. For the same compound, the T/C (dose: 3600.0 micrograms/kg/injection, schedule: Q04DX003 (sc), vehicle: saline) was 98 % of control.

`CC(C)(Br)C(=O)c1ccc(Cl)s1` was tested, and the T/C [1] was 101 % of control, the T/C [2] was 111 % of control and the T/C (dose: 100.0 mg/kg/injection, schedule: Q04DX003 (ip), vehicle: saline with Tween-80) was 109 % of control. For the same compound, the T/C [3] was 119 % of control, the T/C (dose: 200.0 mg/kg/injection, schedule: Q04DX003 (ip), vehicle: saline with Tween-80) was 115 % of control and the T/C (dose: 400.0 mg/kg/injection, schedule: Q01DX009 (ip), vehicle: saline with Tween-80) was 119 % of control. The T/C (dose: 400.0 mg/kg/injection, schedule: Q04DX003 (ip), vehicle: saline with Tween-80) was 107 % of control.

`COc1ccc(/C=C2\NC(=O)NC2=O)cc1O` was tested, and the T/C [1] was 106 % of control, the T/C [2] was 101 % of control and the T/C [3] was 105 % of control.

With `Nc1nc(-c2ccccc2)ns1` the T/C (dose: 25.0 mg/kg/injection, schedule: Q01DX009 (ip), vehicle: saline sonified) was 100 % of control and the T/C (dose: 50.0 mg/kg/injection, schedule: Q01DX009 (ip), vehicle: saline sonified) was 100 % of control.

`CCCCCCc1c(C(OC)OC)[nH]c(=S)[nH]c1=O` was tested, and the T/C (dose: 100.0 mg/kg/injection, schedule: Q01DX009 (ip), vehicle: Klucel (hydroxypropylcellulose) (HPC)) was 96 % of control and the T/C (dose: 200.0 mg/kg/injection, schedule: Q01DX009 (ip), vehicle: Klucel (hydroxypropylcellulose) (HPC)) was 89 % of control.

`CCOC(=O)C(Cc1ccc(N(CCCl)CCCl)cc1)NP1(=O)NCCCO1` (stereo not drawn) was tested, and the T/C (dose: 6.25 mg/kg/injection, schedule: Q01DX009 (ip), vehicle: Klucel (hydroxypropylcellulose) (HPC)) was 153 % of control, the T/C (dose: 9.0 mg/kg/injection, schedule: Q04DX003 (ip), vehicle: Klucel (hydroxypropylcellulose) (HPC)) was 169 % of control and the T/C (dose: 9.5 mg/kg/injection, schedule: Q04DX003 (ip), vehicle: Klucel (hydroxypropylcellulose) (HPC)) was 154 % of control. For the same compound, the T/C (dose: 12.0 mg/kg/injection, schedule: Q04DX003 (ip), vehicle: Klucel (hydroxypropylcellulose) (HPC)) was 209 % of control, the T/C (dose: 12.5 mg/kg/injection, schedule: Q01DX009 (ip), vehicle: Klucel (hydroxypropylcellulose) (HPC)) was 230 % of control and the T/C (dose: 14.5 mg/kg/injection, schedule: Q04DX003 (ip), vehicle: Klucel (hydroxypropylcellulose) (HPC)) was 166 % of control. The T/C (dose: 22.0 mg/kg/injection, schedule: Q04DX003 (ip), vehicle: Klucel (hydroxypropylcellulose) (HPC)) was 166 % of control, the T/C (dose: 25.0 mg/kg/injection, schedule: Q01DX009 (ip), vehicle: Klucel (hydroxypropylcellulose) (HPC)) was 230 % of control and the T/C (dose: 25.0 mg/kg/injection, schedule: Q04DX003 (ip), vehicle: Klucel (hydroxypropylcellulose) (HPC)) was 272 % of control. For the same compound, the T/C (dose: 33.0 mg/kg/injection, schedule: Q04DX003 (ip), vehicle: Klucel (hydroxypropylcellulose) (HPC)) was 250 % of control and 212 % of control, the T/C (dose: 50.0 mg/kg/injection, schedule: Q04DX003 (ip), vehicle: Klucel (hydroxypropylcellulose) (HPC)) was 250 % of control and 181 % of control and the T/C (dose: 75.0 mg/kg/injection, schedule: Q04DX003 (ip), vehicle: Klucel (hydroxypropylcellulose) (HPC)) was 91 % of control.
